Measured values taken from patent publication US20080221084A1, “METHOD FOR REDUCING INFARCTION USING VASOPRESSIN ANTAGONIST COMPOUNDS, AND COMPOSITIONS AND COMBINATIONS THEREFOR” (OTSUKA PHARMACEUTICAL CO., LTD., priority 2006, published 2008).

Key:
[1] = tested on: rats with hypotonic hyponatremia (model of SIADH); assay: DDAVP-induced hypotonic hyponatremia in rats (model of SIADH): plasma sodium and osmolarity; assay type: in vivo, rat (male Sprague-Dawley); conditions: day 14, end of experiment; DDAVP infused 1 ng/h s.c. for 14 days, liquid diet; Mean ±SD
Excerpt: The condition of hypotonic hyponatremia was created by infusing a selective vasopressin V2 agonist, DDAVP, into rats using an osmotic minipump implanted subcutaneously for 14 days in animals with access to only liquid food (a model of SIADH: syndrome of inappropriate antidiuretic hormone secretion). […] Rats either received a daily oral administration of tolvaptan or vehicle in an escalating dosing regime.
Tolvaptan was supplied as a spray-dried formulation, which is a mixture of tolvaptan (free form) and hydroxypropylcellulose (HPC-SL) at a ratio of 2:1. Therefore, the amount of tolvaptan (spray-dried form) was 1.5 times that of tolvaptan (free form). Tolvaptan was suspended in 1% hydroxypropylmethylcellulose solution.
The V2 agonist DDAVP ([deamino-Cys1, D-Arg8]-vasopressin was dissolved in saline (2 μg/mL).
Male Sprague-Dawley rats weighing 150-175 grams were used. Rats had access to feed and tap water. From day −3 (see the timeline in FIG. 1), rats were fed with a customized liquid food (RD-LD89 All-Purpose Liquid Diet Premix, Research Diets, Inc, New Brunswick, N.J.) and no additional food or water was provided. The liquid diet was mixed with water according to manufacturer's instructions.
Rats were acclimated for 3 days to liquid food before the study. Hyponatremia was induced by continuous subcutaneous infusion of 1 ng/h of DDAVP per animal using osmotic minipumps (infusion rate: 0.5 μL/h, ALZET model 2002, DURECT Corporation, Cupertino, Calif.) for 14 days (see FIG. 1). On day 0 when the osmotic minipump was implanted, rats were anesthetized by an intraperitoneal injection of a mixture of ketamine (40 mg/kg) and xylazine (5 mg/kg). The following procedure of implanting minipumps was performed using aseptic techniques. An area 4 cm long and 3 cm wide on the back of the animal (slightly posterior to the scapulae) was shaved and cleaned. A 1 cm cross mid-scapular incision was made. A hemostat was inserted into the incision and a pocket for the pump was created by opening and closing the jaw of the hemostat to spread the subcutaneous tissue. The pump (length 3 cm, diameter 0.7 cm and 0.4 grams) was inserted into the pocket, delivery portal first. The wound was closed with wound clips, and animals were placed on a heating pad for recovery, and eventually returned back to the cage.
On day 2 after the surgery, animals were switched to a nutritionally complete liquid food diet containing 14% dextrose (see FIG. 1). No additional water or solid food was provided.
Starting from day 4, an escalating dosing regime of tolvaptan or vehicle was used from 0.25 mg/kg to 10 mg/kg daily.

[2] = tested on: regional cardiac ischemia/reperfusion in rat heart; assay: 20 minutes regional cardiac ischemia and 3 hours reperfusion in hyponatremic rats: myocardial infarction, risk size, hemodynamics; assay type: in vivo, rat (male Sprague-Dawley); conditions: 20 min regional ischemia, 3 h reperfusion on day 14, compared with saline-infused or vehicle-treated rats, TTC staining
Excerpt: The condition of hypotonic hyponatremia was created by infusing a selective vasopressin V2 agonist, DDAVP, into rats using an osmotic minipump implanted subcutaneously for 14 days in animals with access to only liquid food (a model of SIADH: syndrome of inappropriate antidiuretic hormone secretion). Control rats had the same surgical implantation of an osmotic minipump filled with saline. Rats either received a daily oral administration of tolvaptan or vehicle in an escalating dosing regime. At the end of the 14-day period, rats were subjected to 20 minutes of regional cardiac ischemia and 3 hours of reperfusion, and myocardial infarction was determined. At the final day of the study (day 14), rats were anesthetized, and the chest was open. Hearts were subjected to 20 minutes of regional ischemia followed by 3 hours of reperfusion. On day 14, rats were anesthetized with pentobarbital (30 mg/kg) by an intraperitoneal injection. Once anesthesia was induced, a tracheotomy was performed, and the trachea was cannulated and the animal was attached to a respirator. An oxygen supplement was fed into the tracheal line to maintain the pO2 above 100 mmHg. A cannula was inserted into the right carotid artery to monitor blood pressure and heart rate. The heart was exposed through a left thoracotomy in the fourth intercostal space, and the pericardium opened. A snare was placed around a major branch of the left coronary artery of the animal using a 5-0 suture. The suture ends were passed through a small segment of pliable polyethylene tubing to form a snare. Regional ischemia was induced by pulling the silk tightly through the tubing and clamping the tube with a hemostat. Experiments involved 20 minutes of ischemia and 3 hr reperfusion, which was achieved by releasing the snare. Myocardial ischemia and reperfusion were confirmed by the observation of regional cyanosis and hyperemia, respectively. […] Infarct size was determined by planimetry and expressed as a percentage of risk area infarcted. Data were expressed as the Mean ±SD (standard deviation). […]

| Structure (SMILES) | plasma osmolarity [1] | plasma sodium [1] | myocardial infarct size (percentage of risk area infarcted) [2] | myocardial infarct size (percentage of risk area infarcted) ([2]; listed as tolvaptan) |
| --- | --- | --- | --- | --- |
| NC(=O)CC[C@@H]1NC(=O)[C@H](Cc2ccccc2)NC(=O)[C@H](Cc2ccc(O)cc2)NC(=O)CCSSC[C@@H](C(=O)N2CCC[C@H]2C(=O)N[C@H](CCCN=C(N)N)C(=O)NCC(N)=O)NC(=O)[C@H](CC(N)=O)NC1=O [DDAVP, [deamino-Cys1, D-Arg8]-vasopressin] | 264±6 mOsm/kg | 114 ± 7 mmol/L | more than double |  |
| Cc1ccccc1C(=O)Nc1ccc(C(=O)N2CCCC(O)c3cc(Cl)ccc32)c(C)c1 (stereo not shown) [Tolvaptan, 7-chloro-5-hydroxy-1-[2-methyl-4-(2-methylbenzoyl-amino)benzoyl]-2,3,4,5-tetrahydro-1H-benzazepine] | 304±8 mOsm/kg | 140 ± 3 mmol/L | reduced the infarct size in DDAVP-infused rats to a level similar to that in saline-infused rats | much smaller degree as compared with that in vehicle-treated rats |
